# PubChem BioAssay AID256 (DTP/NCI, 2004)
# Values joined by “and” are separate entries in the source; they are usually repeats but may differ in a detail not shown here. Equal values may be shown once. Toxic doses and inconclusive results are not listed.
# Test system: CD2F1 mice, L1210 leukemia ip, survival T/C
# Assay: NCI In Vivo Anticancer Drug Screen. Data for tumor model L1210 Leukemia (intraperitoneal) in CD2F1 (CDF1) mice
# Conditions: higher = longer survival
# In short: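 Implant tumor; dose compound or vehicle; measure endpoint in both groups; report treated divided by control.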
# [1] = endpoint: mean survival time, dose: 25.0 mg/kg/injection, schedule: Q01DX009 (ip), vehicle: saline with Tween-80
# [2] = endpoint: mean survival time, dose: 50.0 mg/kg/injection, schedule: Q01DX009 (ip), vehicle: saline with Tween-80
# [3] = endpoint: mean survival time, dose: 50.0 mg/kg/injection, schedule: Q04DX003 (ip), vehicle: saline with Tween-80
# [4] = endpoint: mean survival time, dose: 100.0 mg/kg/injection, schedule: Q04DX003 (ip), vehicle: saline with Tween-80
# [5] = endpoint: mean survival time, dose: 100.0 mg/kg/injection, schedule: Q01DX009 (ip), vehicle: saline with Tween-80
# [6] = endpoint: mean survival time, dose: 200.0 mg/kg/injection, schedule: Q01DX009 (ip), vehicle: saline with Tween-80
# [7] = endpoint: mean survival time, dose: 200.0 mg/kg/injection, schedule: Q04DX003 (ip), vehicle: saline with Tween-80
# [8] = endpoint: mean survival time, dose: 400.0 mg/kg/injection, schedule: Q01DX009 (ip), vehicle: saline with Tween-80
# [9] = endpoint: mean survival time, dose: 400.0 mg/kg/injection, schedule: Q04DX003 (ip), vehicle: saline with Tween-80
# [10] = endpoint: mean survival time, dose: 12.5 mg/kg/injection, schedule: Q01DX009 (ip), vehicle: saline
# [11] = endpoint: mean survival time, dose: 25.0 mg/kg/injection, schedule: Q01DX009 (ip), vehicle: saline
# [12] = endpoint: mean survival time, dose: 100.0 mg/kg/injection, schedule: Q01DX009 (ip), vehicle: saline
# [13] = endpoint: mean survival time, dose: 200.0 mg/kg/injection, schedule: Q01DX009 (ip), vehicle: saline
# [14] = endpoint: mean survival time, dose: 100.0 mg/kg/injection, schedule: Q04DX002 (ip), vehicle: saline with Tween-80
# [15] = endpoint: mean survival time, dose: 400.0 mg/kg/injection, schedule: Q04DX002 (ip), vehicle: saline with Tween-80
# [16] = endpoint: mean survival time, dose: 50.0 mg/kg/injection, schedule: Q01DX009 (ip), vehicle: saline
# [17] = endpoint: mean survival time, dose: 100.0 mg/kg/injection, schedule: Q04DX003 (ip), vehicle: saline
compound,measurement,setting,value
COc1cc([C@@H]2c3cc4c(cc3[C@H](O)[C@H]3COC(=O)[C@H]23)OCO4)cc(OC)c1OC,T/C,"endpoint: median survival time, dose: 0.62 mg/kg/injection, schedule: Q01DX009 (ip), vehicle: saline with Tween-80",122 % of control
same,T/C,"endpoint: median survival time, dose: 0.63 mg/kg/injection, schedule: Q01DX009 (ip), vehicle: saline with Tween-80",112 % of control
same,T/C,"endpoint: median survival time, dose: 1.0 mg/kg/injection, schedule: Q01DX005 (ip), vehicle: Klucel (hydroxypropylcellulose) (HPC)",124 % of control
same,T/C,"endpoint: median survival time, dose: 1.25 mg/kg/injection, schedule: Q01DX009 (ip), vehicle: saline with Tween-80",116 % of control and 120 % of control
same,T/C,"endpoint: median survival time, dose: 1.8 mg/kg/injection, schedule: Q01DX009 (ip), vehicle: saline with Tween-80",122 % of control
same,T/C,"endpoint: median survival time, dose: 2.0 mg/kg/injection, schedule: Q01DX005 (ip), vehicle: Klucel (hydroxypropylcellulose) (HPC)",118 % of control
same,T/C,"endpoint: median survival time, dose: 2.5 mg/kg/injection, schedule: Q01DX009 (ip), vehicle: saline with Tween-80",122 % of control
same,T/C,"endpoint: median survival time, dose: 10.0 mg/kg/injection, schedule: Q01DX009 (ip), vehicle: saline with Tween-80",115 % of control and 111 % of control
same,T/C,"endpoint: median survival time, dose: 13.89 mg/kg/injection, schedule: Q01DX009 (ip), vehicle: saline with Tween-80",155 % of control
COc1cc(C)c(O)c(C[P+](c2ccccc2)(c2ccccc2)c2ccccc2)c1,T/C,[1],98 % of control
same,T/C,[2],94 % of control
same,T/C,[3],106 % of control
same,T/C,[4],96 % of control
CC(=O)Nc1ccc(C)c(Cl)c1,T/C,[5],96 % of control
same,T/C,[4],101 % of control
same,T/C,[6],94 % of control
same,T/C,[7],103 % of control
same,T/C,[8],88 % of control
same,T/C,[9],101 % of control
OCC1OC(n2cnc3cncnc32)C(O)C1O (stereo not given),T/C,"endpoint: mean survival time, dose: 0.78 mg/kg/injection, schedule: Q01DX009 (ip), vehicle: saline",94 % of control and 102 % of control
same,T/C,"endpoint: mean survival time, dose: 1.56 mg/kg/injection, schedule: Q01DX009 (ip), vehicle: saline",106 % of control and 112 % of control
same,T/C,"endpoint: mean survival time, dose: 3.12 mg/kg/injection, schedule: Q01DX009 (ip), vehicle: saline",103 % of control and 106 % of control
same,T/C,"endpoint: mean survival time, dose: 6.25 mg/kg/injection, schedule: Q01DX009 (ip), vehicle: saline",118 % of control and 89 % of control
same,T/C,[10],106 % of control
same,T/C,[11],119 % of control and 101 % of control
CC(=O)OC(CC(=O)CC(OC(C)=O)(C(F)(F)F)C(F)(F)F)(C(F)(F)F)C(F)(F)F,T/C,[12],100 % of control
same,T/C,[13],97 % of control
same,T/C,"endpoint: mean survival time, dose: 400.0 mg/kg/injection, schedule: Q01DX009 (ip), vehicle: saline",103 % of control
N=Cc1c(O)n(C2CCCCC2)c(=O)n(C2CCCCC2)c1=O,T/C,[5],105 % of control
same,T/C,[4],95 % of control
same,T/C,[6],100 % of control
same,T/C,[7],96 % of control
same,T/C,[8],107 % of control
same,T/C,[9],96 % of control
CN=Cc1ccc(OC)cc1,T/C,[1],116 % of control
same,T/C,[2],96 % of control
same,T/C,[5],102 % of control
same,T/C,[4],94 % of control
CN(C)c1ccc(/C=N/NC(=O)COc2ccccc2)cc1,T/C,[5],91 % of control
same,T/C,[6],89 % of control
CC(C)CCCC(C)CO[P+](=O)OCC(C)CCCC(C)C (stereo not given),T/C,[14],103 % of control
same,T/C,"endpoint: mean survival time, dose: 200.0 mg/kg/injection, schedule: Q04DX002 (ip), vehicle: saline with Tween-80",96 % of control
same,T/C,[15],88 % of control
NC1=NC(=O)N2CC12 (stereo not given),T/C,"endpoint: mean survival time, dose: 12.5 mg/kg/injection, schedule: Q01DX009 (ip), vehicle: other",100 % of control
same,T/C,[10],107 % of control
same,T/C,"endpoint: mean survival time, dose: 25.0 mg/kg/injection, schedule: Q01DX009 (ip), vehicle: other",100 % of control
same,T/C,[11],106 % of control and 110 % of control
same,T/C,"endpoint: mean survival time, dose: 50.0 mg/kg/injection, schedule: Q01DX009 (ip), vehicle: other",105 % of control
same,T/C,[16],115 % of control and 110 % of control
same,T/C,[13],156 % of control and 173 % of control
BrCC(Br)c1ccccc1 (stereo not given),T/C,[4],100 % of control
same,T/C,[7],100 % of control
same,T/C,[9],96 % of control
COC(=O)c1cccc2c1OCO2,T/C,[5],101 % of control
same,T/C,[4],100 % of control
same,T/C,[6],101 % of control
same,T/C,[7],100 % of control
same,T/C,[8],101 % of control
same,T/C,[9],103 % of control
c1ccc([O+](c2ccccc2)c2ccccc2)cc1,T/C,"endpoint: mean survival time, dose: 0.63 mg/kg/injection, schedule: Q01DX009 (ip), vehicle: saline with Tween-80",102 % of control
same,T/C,"endpoint: mean survival time, dose: 1.25 mg/kg/injection, schedule: Q01DX009 (ip), vehicle: saline with Tween-80",113 % of control
same,T/C,"endpoint: mean survival time, dose: 2.5 mg/kg/injection, schedule: Q01DX009 (ip), vehicle: saline with Tween-80",107 % of control
same,T/C,"endpoint: mean survival time, dose: 5.0 mg/kg/injection, schedule: Q01DX009 (ip), vehicle: saline with Tween-80",90 % of control and 112 % of control
O=C(CCl)N1CCC2(CC1)SSC1(CCN(C(=O)CCl)CC1)S2,T/C,"endpoint: mean survival time, dose: 12.5 mg/kg/injection, schedule: Q01DX009 (ip), vehicle: saline with Tween-80",94 % of control
same,T/C,[1],93 % of control
same,T/C,"endpoint: mean survival time, dose: 25.0 mg/kg/injection, schedule: Q04DX003 (ip), vehicle: saline with Tween-80",89 % of control
same,T/C,[2],97 % of control
same,T/C,[3],100 % of control
same,T/C,[4],93 % of control
C=C1[C@@H](O)[C@]2(O)OC[C@@]34[C@H]1[C@@H](OC(=O)C(C)CC)C(=O)O[C@@H]3C[C@H]1C(C)=CC(=O)[C@@H](O)[C@]1(C)[C@@H]24 (stereo not given in full),T/C,"endpoint: mean survival time, dose: 0.25 mg/kg/injection, schedule: Q01DX009 (ip), vehicle: saline with Tween-80",102 % of control
same,T/C,"endpoint: mean survival time, dose: 0.5 mg/kg/injection, schedule: Q01DX009 (ip), vehicle: saline with Tween-80",105 % of control
same,T/C,"endpoint: mean survival time, dose: 1.0 mg/kg/injection, schedule: Q01DX009 (ip), vehicle: saline with Tween-80",105 % of control
same,T/C,"endpoint: mean survival time, dose: 2.0 mg/kg/injection, schedule: Q01DX009 (ip), vehicle: saline with Tween-80",108 % of control
c1ccc(CNc2nnnc3ccccc23)cc1,T/C,"endpoint: mean survival time, dose: 100.0 mg/kg/injection, schedule: Q01DX001 (ip), vehicle: saline with Tween-80",100 % of control
same,T/C,"endpoint: mean survival time, dose: 200.0 mg/kg/injection, schedule: Q01DX001 (ip), vehicle: saline with Tween-80",88 % of control
same,T/C,"endpoint: mean survival time, dose: 400.0 mg/kg/injection, schedule: Q01DX001 (ip), vehicle: saline with Tween-80",94 % of control
O=[N+]([O-])c1cccnc1SSc1ncccc1[N+](=O)[O-],T/C,"endpoint: mean survival time, dose: 100.0 mg/kg/injection, schedule: Q01DX001 (ip), vehicle: saline",90 % of control
same,T/C,[17],92 % of control
same,T/C,"endpoint: mean survival time, dose: 200.0 mg/kg/injection, schedule: Q01DX001 (ip), vehicle: saline",90 % of control
same,T/C,"endpoint: mean survival time, dose: 200.0 mg/kg/injection, schedule: Q04DX003 (ip), vehicle: saline",102 % of control
same,T/C,"endpoint: mean survival time, dose: 400.0 mg/kg/injection, schedule: Q01DX001 (ip), vehicle: saline",90 % of control
same,T/C,"endpoint: mean survival time, dose: 400.0 mg/kg/injection, schedule: Q04DX003 (ip), vehicle: saline",92 % of control
O=C(C(=C(c1ccccc1)c1ccccc1)N1CCCCC1)c1ccccc1,T/C,"endpoint: mean survival time, dose: 100.0 mg/kg/injection, schedule: Q04DX003 (ip), vehicle: Klucel (hydroxypropylcellulose) (HPC)",94 % of control
same,T/C,"endpoint: mean survival time, dose: 200.0 mg/kg/injection, schedule: Q04DX003 (ip), vehicle: Klucel (hydroxypropylcellulose) (HPC)",96 % of control
same,T/C,"endpoint: mean survival time, dose: 400.0 mg/kg/injection, schedule: Q04DX003 (ip), vehicle: Klucel (hydroxypropylcellulose) (HPC)",94 % of control
N#C/C(=C\C1CCCCC1Cl)C1CCC([N+](=O)[O-])CC1 (stereo not given),T/C,[14],91 % of control
same,T/C,[15],87 % of control
NC1=Nc2ccccc2CS1,T/C,"endpoint: mean survival time, dose: 9.4 mg/kg/injection, schedule: Q01DX009 (ip), vehicle: saline",95 % of control
same,T/C,"endpoint: mean survival time, dose: 18.8 mg/kg/injection, schedule: Q01DX009 (ip), vehicle: saline",107 % of control
same,T/C,"endpoint: mean survival time, dose: 37.5 mg/kg/injection, schedule: Q01DX009 (ip), vehicle: saline",89 % of control
same,T/C,"endpoint: mean survival time, dose: 75.0 mg/kg/injection, schedule: Q01DX001 (ip), vehicle: saline",98 % of control
COc1ccc(C(=O)CC(C#N)c2ccc(OC)c(OC)c2)cc1OC (stereo not given),T/C,[4],98 % of control
same,T/C,[7],101 % of control
same,T/C,[9],98 % of control
O=C(NO)c1ccc(O)cc1,T/C,"endpoint: mean survival time, dose: 267.0 mg/kg/injection, schedule: Q01DX009 (ip), vehicle: saline",120 % of control
CC(C)=CCCC(C)CCN(C)C (stereo not given),T/C,[11],94 % of control
same,T/C,[16],94 % of control
same,T/C,[12],93 % of control
same,T/C,[17],93 % of control
NC(=O)c1ccc(OC(F)(F)C(F)Cl)cc1OC(F)(F)C(F)Cl (stereo not given),T/C,"endpoint: mean survival time, dose: 25.0 mg/kg/injection, schedule: Q04DX002 (ip), vehicle: saline with Tween-80",96 % of control
same,T/C,"endpoint: mean survival time, dose: 50.0 mg/kg/injection, schedule: Q04DX002 (ip), vehicle: saline with Tween-80",101 % of control
same,T/C,[14],101 % of control
CSc1cccc(NC(=O)OCCOc2ccc(NC(C)=O)cc2)c1,T/C,[5],101 % of control
same,T/C,[6],97 % of control
same,T/C,[8],93 % of control
